We go through 11 compounds from patent publication US5354778A, “Antitumor compositions and methods of treatment” (priority 1993, dated 1994).

Each structure is given as a SMILES string. Values after ≈ are worked out from the molar mass of the structure shown.

For one data set, the system named is 6C3HED lymphosarcoma. As to the kind of experiment: in vivo activity against 6C3HED lymphosarcoma (Gardner lymphosarcoma, GLS) transplanted in C3H mice, oral. The conditions noted are these: for Toxic/Total (number of mice which died during test period/total number of mice in test group): 6C3HED tumor-bearing C3H mice; for inhibition in vivo at 150 mg/kg / inhibition in vivo at 300 mg/kg: Mus musculus, 6C3HED, po, 192 h, read-out: % Tumor Inhibition; for % Tumor Inhibition: 6C3HED tumor, C3H mice. As to the method:
The compounds were tested in C3H mice bearing a 6C3HED lymphosarcoma, also known as the Gardner lymphosarcoma (GLS). The 6C3HED lymphosarcoma was obtained from the Division of Cancer Treatment, National Cancer Institute, Tumor Bank, maintained at E. G. and G. Mason Research (Worcester, Mass.). First passage tumor was stored in liquid nitrogen using standard techniques. The transplanted tumor was reestablished from the Tumor Bank every six months or as needed. The tumor was maintained by serial passage twice weekly in C3H mice.
In the procedure the tumor was removed from passage animals and minced into 1- to 3-mm square fragments using sterile techniques. Tumor pieces were checked for sterility using both Antibiotic Medium 1 and Brain Heart Infusion (Difco, Detroit, Mich.). Recipient mice were shaved and tumor pieces were implanted subcutaneously in the auxiliary region by trocar. Drug therapy on the appropriate schedule was initiated on the day after tumor implant. The compound being tested was mixed with 2.5 weight % of a polyoxyethylated oil known as "Emulphor EL-620" surfactant from GAF Chemicals Corporation (1:40 dilution of Empulphor in saline). All animals were weighed at the beginning and end of administration of the subject compounds. Food and water were provided ad libitum. The drug was administered orally in 0.5 ml of 2.5% Emulphor. Unless otherwise indicated, the compound was administered once per day for eight days. The tumor was measured the day after treatment ended with two dimensional measurements (width and length) of the tumor taken using Vernier calipers. Tumor weights were calculated from these measurements using the following formula:
(tumor weight in mg)=(width in mm)^2 ×(length in mm)/2
At least one control group of an equal number of mice was treated with the same volume of 2.5% Emulphor only. The percent inhibition was calculated by subtracting the ratio of the mean tumor size of the test group relative to the control group from 1 and multiplying the result by 100.
The results of administering some of the present compounds orally (unless otherwise indicated) to mice bearing a 6C3HED tumor are provided in the Table. In the Table, column 1 gives the example number corresponding to the preparation of the particular compound, column 2 provides the dose level, column 3 lists the percent inhibition of tumor growth, and column 4 gives the number of mice which died relative to the total number of animals in the group.

The test system of a further data set is CCRF-CEM cells. Nature of the data set: in vitro cytotoxicity against CCRF-CEM cells (50% inhibition of growth). The conditions noted are these: 72 h incubation; for IC50: Homo sapiens, CCRF-CEM. It counts as cell-based, human. As to the method: The in vitro CCRF-CEM data reported in column 5 of the Table was obtained using CCRF-CEM cells, a human leukemia cell line, (Foley et al., Cancer, 1965, 18, 522) were grown as previously described (Grindey, et al., J. Mol. Pharmacol., 1979, 16, 601) both references incorporated herein by reference. Dose-response curves were generated for various compounds to determine the concentration required for 50% inhibition of growth (IC50). Cluster plates were prepared in duplicate with the compound at various concentrations. Test compounds were dissolved initially in DMSO at a concentration of 4 mg/mL and further diluted with solvent to the desired concentration. Cells in Roswell Park Memorial Institute 1640 media supplemented with 10% dialyzed fetal bovine serum, and 25 mM HEPES buffer were added to the well an a final concentration of 4.8×10^4 cells/well in a total volume of 2.0 mL. After 72 h of incubation (95% air, 5% CO2), cell numbers were determined on a ZBI Coulter counter. Cell number for indicated controls at the end of incubation was usually (4-6)×10^5 cells/well.

Setting [1] is: 150 mg/kg orally daily for eight days.
[2] abbreviates: 300 mg/kg orally daily for eight days.

As a reminder, the IC50 is the midpoint of a concentration-inhibition curve. As for `Cc1cc(S(=O)(=O)NC(=O)Nc2ccc(Cl)cc2)cc(C)c1C` [Example 1, N-[[(4-Chlorophenyl)amino]carbonyl]-3,4,5-trimethylbenzene sulfonamide], the “Toxic/Total (number of mice which died during test period/total number of mice in test group)” value (“Toxic/Total” below) in the data set on 6C3HED lymphosarcoma (setting [1]) and in the data set on 6C3HED lymphosarcoma (setting [2]) was 0/10 in each case. In the data set with 6C3HED lymphosarcoma, the inhibition in vivo at 150 mg/kg amounted to 99%. The inhibition in vivo at 300 mg/kg in the data set on 6C3HED lymphosarcoma amounted to 100%. In the data set with CCRF-CEM cells, this compound yielded an IC50 of 14.8 µg/mL (≈ 41.9 µM).
For the compound `Cc1cc(S(=O)(=O)NC(=O)Nc2ccc(Br)cc2)cc(C)c1C` [Example 2, N-[[(4-Bromomhenyl)amino]carbonyl]-3,4,5-trimethylbenzenesulfonamide], the “Toxic/Total” value in the data set on 6C3HED lymphosarcoma (setting [1]) is reported as 1/10. Moreover, in the data set on 6C3HED lymphosarcoma (setting [2]), the “Toxic/Total” value is 8/10. Also, in the data set with 6C3HED lymphosarcoma, the inhibition in vivo at 150 mg/kg came to 99% and the inhibition in vivo at 300 mg/kg came to 99%. The compound further displayed an IC50 in the data set on CCRF-CEM cells of over 20 µg/mL.
Consider `Cc1cc(S(=O)(=O)NC(=O)Nc2ccc(C(F)(F)F)cc2)cc(C)c1C` [Example 3, N-[[(4 -Trifluoromethylphenyl)amino]carbonyl]-3,4,5-trimethylbenzenesulfonamide], for which the entries for the “Toxic/Total” value with 6C3HED lymphosarcoma (setting [1]) and in the data set with 6C3HED lymphosarcoma (setting [2]) were 0/10 and 4/10, respectively. The inhibition in vivo at 150 mg/kg in the data set on 6C3HED lymphosarcoma came out at 100%. Also, the inhibition in vivo at 300 mg/kg in the data set on 6C3HED lymphosarcoma amounted to 100%. The IC50 in the data set with CCRF-CEM cells was over 20 µg/mL.
Regarding `Cc1cc(S(=O)(=O)NC(=O)Nc2ccc(Cl)c(Cl)c2)cc(C)c1C` [Example 4, N-[[(3,4-Dichlorophenyl)amino]carbonyl]-3,4,5-trimethylbenzenesulfonamide], in the data set with 6C3HED lymphosarcoma (setting [1]), the “Toxic/Total” value was 0/10. In addition, in the data set with 6C3HED lymphosarcoma (setting [2]), the “Toxic/Total” value is given as 1/10. Further, in the data set on 6C3HED lymphosarcoma, the inhibition in vivo at 150 mg/kg turned out to be 38% and the inhibition in vivo at 300 mg/kg amounted to 74%. The same compound registered a 50% inhibitory concentration (IC50) in the data set with CCRF-CEM cells of 13.5 µg/mL (≈ 34.9 µM).
In the case of `O=C(Nc1ccc(Cl)cc1)NS(=O)(=O)c1cc(Cl)c(Cl)c(Cl)c1` [Example 6, N-[[(4-Chlorophenyl)amino]carbonyl]-3,4,5-trichlorobenzene sulfonamide], the “Toxic/Total” value in the data set on 6C3HED lymphosarcoma (setting [1]) is 0/10. Further, in the data set with 6C3HED lymphosarcoma (setting [2]), the “Toxic/Total” value is reported as 3/10. Besides, in the data set on 6C3HED lymphosarcoma, the inhibition in vivo at 150 mg/kg was 99% and the inhibition in vivo at 300 mg/kg amounted to 99%. Moreover, in the data set with CCRF-CEM cells, the IC50 is over 20 µg/mL.
For `Nc1c(Cl)cc(S(=O)(=O)NC(=O)Nc2ccc(Cl)cc2)cc1Cl` [Example 7, N,[[(4-Chlorophenyl)amino]carbonyl]-4-amino-3,5-dichlorobenzenesulfonamide], in the data set with 6C3HED lymphosarcoma (setting [1]), the “% Tumor Inhibition” value worked out at 95% and the “Toxic/Total” value is recorded as 0/10. Besides, in the data set on 6C3HED lymphosarcoma (setting [2]), the “% Tumor Inhibition” value is “Toxic” and the “Toxic/Total” value is 10/10. For the same compound, in the data set on CCRF-CEM cells, the “in vitro (CCRF-CEM) IC50” value was over 20 µg/mL.
For `Cc1cc(S(=O)(=O)NC(=O)Nc2ccc(Cl)cc2)cc(C)c1Cl` [Example 12, N-[[(4-Chlorophenyl)amino]carbonyl]-4-chloro-3,5-dimethylbenzenesulfonamide], the “Toxic/Total” value in the data set on 6C3HED lymphosarcoma (setting [1]) was 0/10. Also, the “Toxic/Total” value with 6C3HED lymphosarcoma (setting [2]) is 1/10. Also, in the data set with 6C3HED lymphosarcoma, the inhibition in vivo at 150 mg/kg is 44% and the inhibition in vivo at 300 mg/kg was found to be 84%. Moreover, the midpoint of inhibition with CCRF-CEM cells, the IC50, lay at 15 µg/mL (≈ 40.2 µM).
The corresponding values for `CN(C)c1c(Cl)cc(S(=O)(=O)NC(=O)Nc2ccc(Cl)cc2)cc1Cl` [Example 14, N-[[(4-Chlorophenyl)amino]carbonyl]-4-(N,N,dimethylamino)-3,5-dichlorobenzene-sulfonamide] are 1/10, 0/10, 50%, 93% and 17 µg/mL (≈ 40.2 µM).
For `COc1c(C)cc(S(=O)(=O)NC(=O)Nc2ccc(Cl)cc2)cc1C` [Example 15, N-[[(4-Chlorophenyl)amino]carbonyl]-3,5-dimethyl-4-methoxybenzesulfonamide], the “Toxic/Total” value in the data set on 6C3HED lymphosarcoma (setting [1]) was 1/10. For the same compound, the “Toxic/Total” value with 6C3HED lymphosarcoma (setting [2]) is given as 0/10. In addition, in the data set on 6C3HED lymphosarcoma, the inhibition in vivo at 150 mg/kg turned out to be 55% and the inhibition in vivo at 300 mg/kg came to 87%. This compound had a half-maximal inhibitory concentration (IC50) in the data set with CCRF-CEM cells of 16.5 µg/mL (≈ 44.7 µM).
In the case of `COc1cc(S(=O)(=O)NC(=O)Nc2ccc(Cl)cc2)cc(OC)c1OC` [Example 16, N-[[(4-Chlorophenyl)amino]carbonyl]-3,4,5-trimethoxylbenzenesulfonamide], the “Toxic/Total” value in the data set on 6C3HED lymphosarcoma (setting [1]) and with 6C3HED lymphosarcoma (setting [2]) was 0/10 each time. Besides, the inhibition in vivo at 150 mg/kg with 6C3HED lymphosarcoma came to 6%. Further, in the data set with 6C3HED lymphosarcoma, the inhibition in vivo at 300 mg/kg came out at 35%. Moreover, the IC50 with CCRF-CEM cells is over 20 µg/mL.
Consider `CNc1c(Br)cc(S(=O)(=O)NC(=O)Nc2ccc(Cl)cc2)cc1Br` [Example 18, N-[[(4-Chlorophenyl)amino]carbonyl]-3,5-dibromo-4-(N-methylamino)benzenesulfonamide], for which the “Toxic/Total” value is 1/10 in the data set on 6C3HED lymphosarcoma (setting [1]) and 0/10 in the data set with 6C3HED lymphosarcoma (setting [2]). For the same compound, the inhibition in vivo at 150 mg/kg in the data set with 6C3HED lymphosarcoma turned out to be 26%. Besides, the inhibition in vivo at 300 mg/kg in the data set with 6C3HED lymphosarcoma worked out at 47%. The compound further returned an IC50 in the data set with CCRF-CEM cells of 19.3 µg/mL (≈ 38.8 µM).
